# Measured values from ChEMBL document CHEMBL1153754, “1-Aryl-3,4-dihydroisoquinoline inhibitors of JNK3” (Bioorg Med Chem Lett, 2009).
# Experiments:
# [1] = molecular target: T1, Mitogen-activated protein kinase 10 (Homo sapiens, UniProt P53779); assay: Inhibition of N-terminal His(6)-tagged truncated human JNK3 transfected in baculovirus expression system by fluorescence anisotropy
# [2] = molecular target: T2, Mitogen-activated protein kinase 14 (Homo sapiens, UniProt Q16539); assay: Inhibition of histidine-tagged human recombinant p38alpha after 120 mins by TR-FRET assay
# T2 sequence (Q16539 whole entry): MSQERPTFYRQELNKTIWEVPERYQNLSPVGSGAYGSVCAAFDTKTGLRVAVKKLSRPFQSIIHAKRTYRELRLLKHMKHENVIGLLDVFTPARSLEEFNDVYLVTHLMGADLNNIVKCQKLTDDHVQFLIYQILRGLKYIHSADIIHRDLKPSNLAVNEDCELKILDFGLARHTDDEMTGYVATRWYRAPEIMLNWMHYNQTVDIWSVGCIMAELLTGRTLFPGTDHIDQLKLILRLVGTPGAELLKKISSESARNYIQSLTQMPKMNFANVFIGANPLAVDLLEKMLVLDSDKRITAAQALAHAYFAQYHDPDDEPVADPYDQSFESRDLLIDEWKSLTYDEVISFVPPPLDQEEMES
# [3] = molecular target: T2, Mitogen-activated protein kinase 14; assay: Inhibition of N-terminal GST-tagged p38alpha expressed in Escherichia coli by fluorescence anisotropy
# [4] = molecular target: T1, Mitogen-activated protein kinase 10; assay: Inhibition of JNK3 by high throughput screening
# [5] = molecular target: Mitogen-activated protein kinase 9 (Homo sapiens, UniProt P45984); assay: Inhibition of N-terminal histidine-tagged human full length JNK2-alpha-2 by radiometric filter binding assay
# Sequence of Mitogen-activated protein kinase 9 (P45984 whole entry): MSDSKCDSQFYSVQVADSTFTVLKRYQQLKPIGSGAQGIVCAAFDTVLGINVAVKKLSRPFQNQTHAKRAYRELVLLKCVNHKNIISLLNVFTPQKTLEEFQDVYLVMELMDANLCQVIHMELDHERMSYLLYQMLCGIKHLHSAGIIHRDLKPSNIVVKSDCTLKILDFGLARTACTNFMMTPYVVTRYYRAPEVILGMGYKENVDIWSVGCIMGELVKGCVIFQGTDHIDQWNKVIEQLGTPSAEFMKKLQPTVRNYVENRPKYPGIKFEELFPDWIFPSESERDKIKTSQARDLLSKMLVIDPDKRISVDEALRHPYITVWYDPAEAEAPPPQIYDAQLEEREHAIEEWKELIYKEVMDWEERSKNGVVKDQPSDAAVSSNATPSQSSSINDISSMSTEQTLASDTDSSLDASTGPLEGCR
# [6] = molecular target: Serine/threonine-protein kinase PLK1 (Homo sapiens, UniProt P53350); assay: Inhibition of PLK1
# [7] = molecular target: Rho-associated protein kinase 1 (Homo sapiens, UniProt Q13464); assay: Inhibition of ROCK1
# [8] = molecular target: Glycogen synthase kinase-3 beta (Homo sapiens, UniProt P49841); assay: Inhibition of GSK3-beta
# [9] = molecular target: T3, Inhibitor of nuclear factor kappa-B kinase subunit beta (Homo sapiens, UniProt O14920); assay: Inhibition of IKK-beta
# T3 sequence (O14920 whole entry): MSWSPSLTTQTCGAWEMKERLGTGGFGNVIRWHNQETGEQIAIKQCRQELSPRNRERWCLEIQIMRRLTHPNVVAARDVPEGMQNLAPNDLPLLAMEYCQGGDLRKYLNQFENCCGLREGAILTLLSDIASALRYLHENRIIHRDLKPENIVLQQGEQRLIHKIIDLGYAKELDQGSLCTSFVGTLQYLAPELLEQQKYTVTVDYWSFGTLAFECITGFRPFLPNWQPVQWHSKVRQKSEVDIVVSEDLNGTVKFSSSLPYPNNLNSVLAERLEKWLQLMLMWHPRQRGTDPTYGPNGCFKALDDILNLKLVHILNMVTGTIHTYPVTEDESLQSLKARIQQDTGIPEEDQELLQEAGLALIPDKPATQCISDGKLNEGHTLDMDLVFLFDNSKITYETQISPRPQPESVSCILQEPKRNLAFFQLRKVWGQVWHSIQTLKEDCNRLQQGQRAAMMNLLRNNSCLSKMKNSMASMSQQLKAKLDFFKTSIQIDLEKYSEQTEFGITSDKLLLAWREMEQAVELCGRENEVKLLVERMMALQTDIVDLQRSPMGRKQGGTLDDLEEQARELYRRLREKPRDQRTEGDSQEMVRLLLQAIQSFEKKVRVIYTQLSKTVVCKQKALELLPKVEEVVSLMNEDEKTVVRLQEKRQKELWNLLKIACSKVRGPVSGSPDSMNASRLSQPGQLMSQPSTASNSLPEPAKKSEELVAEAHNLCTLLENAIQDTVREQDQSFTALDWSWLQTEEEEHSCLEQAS
# [10] = molecular target: T4, Serine/threonine-protein kinase Sgk1 (Homo sapiens, UniProt O00141); assay: Inhibition of SGK1
# T4 sequence (O00141 whole entry): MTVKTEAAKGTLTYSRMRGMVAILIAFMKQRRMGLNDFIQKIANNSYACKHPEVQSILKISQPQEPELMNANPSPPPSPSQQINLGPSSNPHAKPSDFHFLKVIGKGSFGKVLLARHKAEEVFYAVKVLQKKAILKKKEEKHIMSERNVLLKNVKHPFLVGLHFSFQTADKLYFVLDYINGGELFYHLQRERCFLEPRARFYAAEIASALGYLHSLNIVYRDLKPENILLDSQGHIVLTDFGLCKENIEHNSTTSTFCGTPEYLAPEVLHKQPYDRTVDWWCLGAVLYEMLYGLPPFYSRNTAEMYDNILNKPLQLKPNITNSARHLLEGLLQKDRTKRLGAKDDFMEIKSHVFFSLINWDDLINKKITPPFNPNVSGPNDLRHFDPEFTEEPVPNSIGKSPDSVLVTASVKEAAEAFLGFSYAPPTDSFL
# [11] = molecular target: Cyclin-dependent kinase 2 (Homo sapiens, UniProt P24941); assay: Inhibition of CDK2
# [12] = molecular target: T5, Inhibitor of nuclear factor kappa-B kinase subunit alpha (Homo sapiens, UniProt O15111); assay: Inhibition of IKKalpha
# T5 sequence (O15111 whole entry): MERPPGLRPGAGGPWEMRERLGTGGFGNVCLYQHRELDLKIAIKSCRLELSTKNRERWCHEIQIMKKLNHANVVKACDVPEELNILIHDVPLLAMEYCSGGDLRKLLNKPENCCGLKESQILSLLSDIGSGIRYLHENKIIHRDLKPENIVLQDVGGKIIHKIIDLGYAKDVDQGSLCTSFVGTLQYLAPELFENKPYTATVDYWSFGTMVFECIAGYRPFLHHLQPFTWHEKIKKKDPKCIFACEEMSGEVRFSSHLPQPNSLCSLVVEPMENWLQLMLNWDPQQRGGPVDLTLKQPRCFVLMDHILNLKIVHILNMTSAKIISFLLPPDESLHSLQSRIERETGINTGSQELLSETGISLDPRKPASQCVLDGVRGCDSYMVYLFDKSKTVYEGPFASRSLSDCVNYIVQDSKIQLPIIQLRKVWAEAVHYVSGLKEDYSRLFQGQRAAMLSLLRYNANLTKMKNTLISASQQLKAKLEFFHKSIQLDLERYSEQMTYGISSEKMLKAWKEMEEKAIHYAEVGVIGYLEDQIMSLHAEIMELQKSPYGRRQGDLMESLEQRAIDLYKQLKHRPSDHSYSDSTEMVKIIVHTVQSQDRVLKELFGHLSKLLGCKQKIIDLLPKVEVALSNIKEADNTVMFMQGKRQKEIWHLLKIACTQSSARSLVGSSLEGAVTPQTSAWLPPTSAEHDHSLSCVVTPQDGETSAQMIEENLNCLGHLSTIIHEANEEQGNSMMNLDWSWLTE
# [13] = molecular target: Mitogen-activated protein kinase 1 (Homo sapiens, UniProt P28482); assay: Inhibition of N-terminal GST-tagged human full length Erk2 by radiometric filter binding assay
# Sequence of Mitogen-activated protein kinase 1 (P28482 whole entry): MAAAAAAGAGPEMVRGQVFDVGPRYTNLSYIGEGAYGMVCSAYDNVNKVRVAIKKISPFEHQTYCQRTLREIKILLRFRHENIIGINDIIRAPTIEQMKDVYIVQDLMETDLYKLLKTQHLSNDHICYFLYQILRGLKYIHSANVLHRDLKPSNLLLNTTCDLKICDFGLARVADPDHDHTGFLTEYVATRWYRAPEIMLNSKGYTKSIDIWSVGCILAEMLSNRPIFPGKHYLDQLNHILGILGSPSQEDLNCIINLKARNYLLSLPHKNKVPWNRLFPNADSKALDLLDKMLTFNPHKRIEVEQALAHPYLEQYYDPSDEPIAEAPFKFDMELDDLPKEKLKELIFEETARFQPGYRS
# [14] = molecular target: T1, Mitogen-activated protein kinase 10; assay: Inhibition of N-terminal histidine-tagged human full length JNK3 by radiometric filter binding assay
# [15] = molecular target: T6, Mitogen-activated protein kinase 8 (Homo sapiens, UniProt P45983); assay: Inhibition of N-terminal histidine-tagged human full length JNK1-alpha-1 by radiometric filter binding assay
# T6 sequence (P45983 whole entry): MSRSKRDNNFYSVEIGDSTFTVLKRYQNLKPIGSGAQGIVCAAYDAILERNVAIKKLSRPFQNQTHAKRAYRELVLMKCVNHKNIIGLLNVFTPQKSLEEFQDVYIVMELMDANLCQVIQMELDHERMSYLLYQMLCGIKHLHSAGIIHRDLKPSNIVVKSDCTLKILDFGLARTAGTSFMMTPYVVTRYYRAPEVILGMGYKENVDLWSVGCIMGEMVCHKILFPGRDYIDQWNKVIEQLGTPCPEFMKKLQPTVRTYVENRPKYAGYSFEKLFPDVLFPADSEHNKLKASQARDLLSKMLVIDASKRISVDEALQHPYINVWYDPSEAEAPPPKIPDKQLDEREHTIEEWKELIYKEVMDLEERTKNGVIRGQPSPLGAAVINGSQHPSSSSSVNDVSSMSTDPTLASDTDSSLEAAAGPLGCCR
# [16] = molecular target: Macrophage colony-stimulating factor 1 receptor (Homo sapiens, UniProt P07333); assay: Inhibition of c-Fms
# Sequence of Macrophage colony-stimulating factor 1 receptor (P07333 whole entry): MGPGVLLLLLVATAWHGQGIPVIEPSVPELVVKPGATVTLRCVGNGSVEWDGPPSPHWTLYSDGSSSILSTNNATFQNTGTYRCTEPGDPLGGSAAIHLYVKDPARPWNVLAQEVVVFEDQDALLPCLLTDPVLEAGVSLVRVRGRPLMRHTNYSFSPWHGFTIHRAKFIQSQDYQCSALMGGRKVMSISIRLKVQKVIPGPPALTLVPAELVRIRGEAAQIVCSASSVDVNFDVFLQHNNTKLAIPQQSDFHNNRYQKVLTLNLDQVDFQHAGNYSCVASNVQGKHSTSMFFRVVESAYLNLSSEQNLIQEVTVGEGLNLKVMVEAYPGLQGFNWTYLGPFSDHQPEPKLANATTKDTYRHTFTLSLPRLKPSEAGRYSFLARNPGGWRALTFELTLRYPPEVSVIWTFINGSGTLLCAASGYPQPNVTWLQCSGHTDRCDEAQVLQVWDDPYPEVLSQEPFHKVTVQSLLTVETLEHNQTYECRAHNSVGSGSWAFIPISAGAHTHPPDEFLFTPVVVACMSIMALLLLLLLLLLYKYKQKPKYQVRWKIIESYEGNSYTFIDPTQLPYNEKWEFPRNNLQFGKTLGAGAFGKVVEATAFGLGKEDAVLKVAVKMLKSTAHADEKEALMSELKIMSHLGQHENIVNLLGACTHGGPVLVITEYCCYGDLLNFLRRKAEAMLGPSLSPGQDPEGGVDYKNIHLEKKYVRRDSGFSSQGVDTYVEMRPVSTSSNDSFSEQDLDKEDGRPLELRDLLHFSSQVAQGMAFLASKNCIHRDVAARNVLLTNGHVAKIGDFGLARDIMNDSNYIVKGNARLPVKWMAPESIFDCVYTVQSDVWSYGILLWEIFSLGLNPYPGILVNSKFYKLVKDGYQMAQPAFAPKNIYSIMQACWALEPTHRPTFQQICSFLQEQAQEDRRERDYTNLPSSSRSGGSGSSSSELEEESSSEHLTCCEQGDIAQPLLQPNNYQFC
# [17] = molecular target: Mitogen-activated protein kinase kinase kinase 11 (Homo sapiens, UniProt Q16584); assay: Inhibition of MLK3
# [18] = molecular target: Serine/threonine-protein kinase B-raf (Homo sapiens, UniProt P15056); assay: Inhibition of B-Raf
# Sequence of Serine/threonine-protein kinase B-raf (P15056 whole entry): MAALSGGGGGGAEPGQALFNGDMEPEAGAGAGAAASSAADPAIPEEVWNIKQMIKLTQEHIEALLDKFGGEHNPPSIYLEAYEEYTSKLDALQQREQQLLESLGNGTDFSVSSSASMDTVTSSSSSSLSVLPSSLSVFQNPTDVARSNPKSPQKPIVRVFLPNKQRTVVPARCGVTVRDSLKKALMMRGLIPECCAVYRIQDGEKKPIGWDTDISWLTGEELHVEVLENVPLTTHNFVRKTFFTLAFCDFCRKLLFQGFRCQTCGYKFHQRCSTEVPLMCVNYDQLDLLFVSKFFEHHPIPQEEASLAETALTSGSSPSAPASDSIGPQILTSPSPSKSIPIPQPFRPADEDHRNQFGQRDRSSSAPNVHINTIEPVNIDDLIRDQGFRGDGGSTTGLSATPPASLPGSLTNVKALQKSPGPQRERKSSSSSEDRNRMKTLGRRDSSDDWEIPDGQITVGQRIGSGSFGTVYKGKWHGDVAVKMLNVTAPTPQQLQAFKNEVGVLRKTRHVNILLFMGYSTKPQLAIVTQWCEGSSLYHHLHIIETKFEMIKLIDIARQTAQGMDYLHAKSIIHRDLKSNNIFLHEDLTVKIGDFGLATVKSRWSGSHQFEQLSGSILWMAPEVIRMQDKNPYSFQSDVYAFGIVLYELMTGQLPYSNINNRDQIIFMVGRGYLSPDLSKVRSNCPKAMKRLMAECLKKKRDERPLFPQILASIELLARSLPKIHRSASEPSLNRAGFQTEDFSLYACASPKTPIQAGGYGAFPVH
# [19] = molecular target: Receptor tyrosine-protein kinase erbB-2 (Homo sapiens, UniProt P04626); assay: Inhibition of ErbB2
# Sequence of Receptor tyrosine-protein kinase erbB-2 (P04626 whole entry): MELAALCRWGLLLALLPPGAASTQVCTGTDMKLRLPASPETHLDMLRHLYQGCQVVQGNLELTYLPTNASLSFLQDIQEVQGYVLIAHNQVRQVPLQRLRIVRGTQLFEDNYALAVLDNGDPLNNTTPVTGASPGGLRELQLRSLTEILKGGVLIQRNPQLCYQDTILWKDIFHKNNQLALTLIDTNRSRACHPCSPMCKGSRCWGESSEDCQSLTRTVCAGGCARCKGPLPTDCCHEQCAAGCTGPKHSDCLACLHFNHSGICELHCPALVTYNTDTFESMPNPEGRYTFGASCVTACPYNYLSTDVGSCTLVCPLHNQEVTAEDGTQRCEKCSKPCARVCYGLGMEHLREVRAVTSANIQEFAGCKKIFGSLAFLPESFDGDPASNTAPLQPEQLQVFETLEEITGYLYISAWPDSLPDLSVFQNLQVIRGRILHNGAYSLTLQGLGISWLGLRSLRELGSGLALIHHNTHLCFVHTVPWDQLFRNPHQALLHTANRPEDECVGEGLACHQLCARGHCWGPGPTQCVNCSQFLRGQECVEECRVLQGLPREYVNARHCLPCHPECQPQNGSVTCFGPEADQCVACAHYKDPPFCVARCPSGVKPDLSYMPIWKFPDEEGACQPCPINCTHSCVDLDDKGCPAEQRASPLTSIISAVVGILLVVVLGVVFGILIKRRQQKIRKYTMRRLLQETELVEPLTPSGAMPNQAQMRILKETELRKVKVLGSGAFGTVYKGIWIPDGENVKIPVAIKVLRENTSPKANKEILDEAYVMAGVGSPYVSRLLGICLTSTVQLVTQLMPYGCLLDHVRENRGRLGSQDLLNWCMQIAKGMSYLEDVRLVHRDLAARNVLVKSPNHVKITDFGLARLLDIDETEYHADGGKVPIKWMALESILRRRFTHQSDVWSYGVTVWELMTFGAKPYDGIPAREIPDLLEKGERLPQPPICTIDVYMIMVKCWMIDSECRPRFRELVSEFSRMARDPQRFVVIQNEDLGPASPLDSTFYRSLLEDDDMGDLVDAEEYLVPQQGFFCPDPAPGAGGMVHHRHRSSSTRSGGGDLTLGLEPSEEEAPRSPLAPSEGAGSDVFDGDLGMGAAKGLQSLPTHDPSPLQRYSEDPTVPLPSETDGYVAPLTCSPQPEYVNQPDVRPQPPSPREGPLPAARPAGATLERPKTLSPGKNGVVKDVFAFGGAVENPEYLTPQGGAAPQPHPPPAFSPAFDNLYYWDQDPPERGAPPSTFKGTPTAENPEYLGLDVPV
# [20] = molecular target: Tyrosine-protein kinase Lck (Homo sapiens, UniProt P06239)
# [21] = molecular target: T2, Mitogen-activated protein kinase 14; assay: Inhibition of p38alpha by high throughput screening
# [22] = molecular target: T6, Mitogen-activated protein kinase 8; assay: Inhibition of JNK1 by high throughput screening
# T1 sequence (P53779 whole entry, the tested form may be a part): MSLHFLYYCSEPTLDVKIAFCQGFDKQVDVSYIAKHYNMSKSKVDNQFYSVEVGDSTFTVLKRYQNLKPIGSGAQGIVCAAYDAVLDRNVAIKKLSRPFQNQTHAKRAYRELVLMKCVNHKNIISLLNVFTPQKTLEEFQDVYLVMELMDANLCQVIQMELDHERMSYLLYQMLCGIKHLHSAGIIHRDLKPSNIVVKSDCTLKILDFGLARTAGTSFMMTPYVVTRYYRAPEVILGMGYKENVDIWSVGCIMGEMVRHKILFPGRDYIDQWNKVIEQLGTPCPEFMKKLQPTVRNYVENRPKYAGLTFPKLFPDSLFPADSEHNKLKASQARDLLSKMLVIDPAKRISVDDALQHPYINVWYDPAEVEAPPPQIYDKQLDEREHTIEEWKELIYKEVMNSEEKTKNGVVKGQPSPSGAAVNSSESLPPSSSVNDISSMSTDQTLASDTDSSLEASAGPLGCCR
Structure (SMILES),IC50 [1],IC50 [2],IC50 [3],other results
COc1cc2c(cc1Cl)CCN=C2c1ccc(Cl)c(Cl)c1,15.8 µM,> 15.8 µM,,
COc1cc2c(cc1Cl)CCN=C2c1cccc(Cl)c1,12.6 µM,> 15.8 µM,,
COc1cc2c(cc1Cl)CCN=C2c1ccc2ccccc2c1,> 15.8 µM,> 15.8 µM,,
COc1cc2c(cc1Cl)CCN=C2c1cccc(F)c1,> 15.8 µM,> 15.8 µM,,
COc1cc2c(cc1OC)C(c1cccc(Cl)c1)=NCC2,,,,IC50 [4]: 10 µM
COc1cc2c(cc1OC)C(c1ccccc1)=NCC2,> 15.8 µM,> 15.8 µM,,
COc1cc2c(cc1Cl)CCN=C2c1ccccc1,> 15.8 µM,> 15.8 µM,,
CCC1=NCCc2cc(OC)c(Cl)cc21,> 15.8 µM,,> 15.8 µM,
Clc1cccc(C2=NCCc3ccccc32)c1,> 15.8 µM,,> 15.8 µM,
COc1cc2c(cc1Cl)CCN=C2c1ccc(F)cc1,> 15.8 µM,> 15.8 µM,,
COc1cc2c(cc1OC)C(c1ccc(Cl)c(Cl)c1)=NCC2,6.31 µM,,> 15.8 µM,
COc1cc2c(cc1Cl)CCN=C2c1cccc(Br)c1,10 µM,> 15.8 µM,,
COc1cc2c(cc1Cl)C(c1ccccc1)=NCC2,6.31 µM,,> 15.8 µM,
COc1cc2c(cc1OC)C(c1ccc(Cl)cc1)=NCC2,> 15.8 µM,,> 15.8 µM,
COc1cc2c(cc1Cl)C(Cc1ccccc1)=NCC2,> 15.8 µM,,> 15.8 µM,
COc1cccc(C2=NCCc3cc(OC)c(OC)cc32)c1,> 15.8 µM,,> 15.8 µM,
O=C(NC1CCNCC1)c1cccc(-c2n[nH]c3cc(Nc4ccccc4Cl)ccc23)c1,,,,IC50 [21]: 0.00398 µM; IC50 [22]: 0.0794 µM; IC50 [4]: 0.00126 µM

# Continued by falling IC50 [1], values first:
IC50 [1],IC50 [2],IC50 [3],Structure (SMILES),other results
5.01 µM,,> 15.8 µM,COc1cc2c(cc1Cl)C(c1ccc(F)cc1)=NCC2,
3.98 µM,,> 15.8 µM,COc1cc2c(cc1Cl)C(c1cccc(F)c1)=NCC2,
2 µM,,> 15.8 µM,COc1cc2c(cc1Cl)C(c1cccc(C)c1)=NCC2,
1 µM,,> 15.8 µM,COc1cc2c(cc1Cl)C(c1ccc3ccccc3c1)=NCC2,
0.631 µM,,12.6 µM,COc1cc2c(cc1Cl)C(c1cccc(Cl)c1F)=NCC2,
0.398 µM,,12.6 µM,COc1cc2c(cc1Cl)C(c1cccc(Br)c1)=NCC2,
0.316 µM,,7.94 µM,COc1cc2c(cc1Cl)C(c1ccc(Cl)c(Cl)c1)=NCC2,IC50 [5]: 0.794 µM; IC50 [6]: > 10 µM; IC50 [7]: > 10 µM; IC50 [8]: > 10 µM; IC50 [9]: > 10 µM; IC50 [10]: > 10 µM; IC50 [11]: > 10 µM; IC50 [12]: > 10 µM; IC50 [13]: > 100 µM; IC50 [14]: 0.0501 µM; IC50 [15]: 100 µM; IC50 [16]: > 10 µM; IC50 [17]: > 10 µM; IC50 [18]: > 10 µM; IC50 [19]: > 10 µM
0.251 µM,,7.94 µM,COc1cc2c(cc1Cl)C(c1cccc(Cl)c1)=NCC2,IC50 [5]: 1.26 µM; IC50 [6]: > 10 µM; IC50 [7]: > 10 µM; IC50 [8]: > 10 µM; IC50 [9]: > 10 µM; IC50 [10]: > 10 µM; IC50 [20]: > 10 µM; IC50 [11]: > 10 µM; IC50 [12]: > 10 µM; IC50 [13]: > 100 µM; IC50 [14]: 0.126 µM; IC50 [15]: > 100 µM; IC50 [16]: > 10 µM; IC50 [17]: > 10 µM; IC50 [18]: > 10 µM; IC50 [19]: > 10 µM
